In US20240246950A1, “Anilino-Pyrazole Derivatives, Compositions and Methods Thereof” (Ensem Therapeutics, priority 2022, published 2024) one finds IC50 data, which are given here for 4 molecules.

Where two headings read alike, the source gives them in different places. Some results are limits rather than exact numbers.

In assay [1] the target is T1, CDK1/cyclinB (Homo sapiens, UniProt P06493). Put plainly: In vitro kinase Caliper assay CDK1/cyclinB. Type of assay: biochemical. To be noted: enzyme 1 nM, 28° C. 30 min. How it is done:
(§1) In Vitro Kinase Caliper Assays: CDK2/CycA2, CDK2/CycE1, CDK1/cyclinB and GSK3β
(§2) 1× Kinase buffer (50 mM HEPES pH 7.5, 10 mM MgCl2, 2 mM DTT and 0.01% Brij-35) The test compounds were prepared as 10 mM stock solution in 100% DMSO. The stock solution was then serially diluted 3-fold in 100% DMSO to 10 concentrations. 200 nL of each diluted compound solution was transferred to 384-well plate in duplicate. To each well, 10 μL of enzyme solution containing either CDK2/CycA2, CDK2/CycE1, CDK1/cyclinB, or GSK3β (final concentrations 10 nM, 3 nM, 1 nM, 1 nM respectively) in 1× Kinase buffer and the mix incubated at room temperature for 10 min. To initiate each reaction, 10 μL of peptide solution containing FAM-labelled peptide with final concentration at 3000 nM (FAM-P18 (5-FAM-QSPKKG-CONH2) for CDK2/CycA2, CDK2/CycE1, CDK1/cyclinB proteins, FAM-P15 (5-FAM-KRREILSRRPpSYR—COOH) for GSK30 protein) and ATP (final concentrations 30 μM, 77 μM or 20 μM, respectively) in 1× Kinase buffer was added to each well. All reactions were incubated at 28° C. for 30 min and then terminated by the addition of 30 μL stop buffer (100 mM HEPES pH 7.5, 50 mM EDTA, 0.2% Coating Reagent #3 and 0.015% Brij-35). All samples were then subjected to analysis using Caliper EZ Reader to read conversion values. IC50 values were then calculated by plotting dose-response curves and then using the XLfit application in Excel software.

The next assay has as its system TOV21G. Kind of assay: Cell proliferation (CyQUANT) TOV21G. Type of assay: cell-based. To be noted: 7 days, read-out: Anti-proliferation assay: IC50 (nM) [Cell Line: TOV21G]. In short, it runs like this:
(§3)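 Cells were seeded at 2500, 1000 or 3000 cells/well, cultured overnight, then exposed to 3-fold compound dilutions for 7 days (final DMSO at most 0.01%). CyQUANT fluorescence was read at Ex/Em 480/520 nm; % inhibition computed relative to same-plate DMSO wells.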

In the next assay the test system is OVCAR3. Kind of assay: Cell proliferation (CyQUANT) OVCAR3. Type of assay: cell-based. To be noted: OVCAR3, 7 days, read-out: Anti-proliferation assay: IC50 (nM) [Cell Line: OVCAR3]. In short, it runs like this:
as §3

The target in assay [2] is T2, CDK2/CycA2 (Homo sapiens, UniProt P24941). Kind of assay: In vitro kinase Caliper assay CDK2/CycA2. To be noted: enzyme 10 nM, 28° C. 30 min, read-out: CDK2 cyclinA2 activity assay: IC50. Type of assay: biochemical. How it is done: as §1, §2
For assay [3], the target named is T3, GSK3β (Homo sapiens, UniProt P49841). Put plainly: In vitro kinase Caliper assay GSK3β. To be noted: enzyme 1 nM, 28° C. 30 min. Type of assay: biochemical. As to the method:
as §1, §2

In assay [4] the target is T4, CDK2/CycE1 (Homo sapiens, UniProt P24941). Put plainly: In vitro kinase Caliper assay CDK2/CycE1. Type of assay: biochemical. To be noted: enzyme 3 nM, 28° C. 30 min, read-out: CDK2 cyclinE1 activity assay: IC50. How it is done:
as §1, §2

The target in assay [5] is T1, CDK1/cyclinB. Put plainly: In vitro kinase TR-FRET assay CDK1/cyclinB. To be noted: enzyme 0.3 nM, ATP 56 μM. Type of assay: biochemical. The method, boiled down: (§4)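 Enzymes at 3 nM (CDK2/CycA2), 0.6 nM (CDK2/CycE1), 0.3 nM (CDK1/cyclinB), 0.6 nM (GSK3β) with ATP at 27, 82, 56, 7.6 μM respectively, 50 nM ULight-4E-BP1 peptide, HEPES pH7.5; 10-point 3-fold dilutions. 1 h reaction at room temperature; Eu-anti-phospho-4E-BP1 TR-FRET (665/615 nm) read; IC50 from dose-response curves.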

Assay [6] addresses T4, CDK2/CycE1. Kind of assay: In vitro kinase TR-FRET assay CDK2/CycE1. Type of assay: biochemical. To be noted: enzyme 0.6 nM, ATP 82 μM, read-out: CDK2 cyclinE1 activity assay: IC50. The method, boiled down: as §4
Background: TR-FRET usually uses a lanthanide donor and a delayed reading to cut background.

For assay [7], the target named is T3, GSK3β. Put plainly: In vitro kinase TR-FRET assay GSK3β. Type of assay: biochemical. To be noted: enzyme 0.6 nM, ATP 7.6 μM. In short, it runs like this:
as §4

Assay [8] concerns the target T2, CDK2/CycA2. Kind of assay: In vitro kinase TR-FRET assay CDK2/CycA2. Type of assay: biochemical. To be noted: enzyme 3 nM, ATP 27 μM, read-out: CDK2 cyclinA2 activity assay: IC50. In short, it runs like this: as §4

T3 sequence (P49841 whole entry, species assumed): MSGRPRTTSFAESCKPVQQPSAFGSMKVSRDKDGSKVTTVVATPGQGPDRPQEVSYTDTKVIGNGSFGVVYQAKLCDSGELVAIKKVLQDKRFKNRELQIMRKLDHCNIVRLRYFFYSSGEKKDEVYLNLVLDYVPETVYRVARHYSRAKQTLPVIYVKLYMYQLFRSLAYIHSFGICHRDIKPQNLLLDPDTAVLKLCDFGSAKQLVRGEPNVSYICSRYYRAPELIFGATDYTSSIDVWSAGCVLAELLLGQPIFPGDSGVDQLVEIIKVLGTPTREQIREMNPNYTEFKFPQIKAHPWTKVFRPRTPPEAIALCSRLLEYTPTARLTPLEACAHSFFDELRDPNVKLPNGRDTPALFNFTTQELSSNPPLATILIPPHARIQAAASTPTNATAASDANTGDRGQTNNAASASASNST
T1 sequence (P06493 whole entry): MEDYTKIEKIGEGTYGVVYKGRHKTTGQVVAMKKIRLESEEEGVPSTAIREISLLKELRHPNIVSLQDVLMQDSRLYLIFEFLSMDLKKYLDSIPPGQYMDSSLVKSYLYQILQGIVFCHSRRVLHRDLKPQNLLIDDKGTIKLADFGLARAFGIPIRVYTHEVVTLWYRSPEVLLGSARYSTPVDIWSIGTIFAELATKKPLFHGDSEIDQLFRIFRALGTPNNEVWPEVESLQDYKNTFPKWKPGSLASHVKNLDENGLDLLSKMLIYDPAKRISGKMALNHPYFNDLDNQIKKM
T1 sequence (P14635 whole entry partner): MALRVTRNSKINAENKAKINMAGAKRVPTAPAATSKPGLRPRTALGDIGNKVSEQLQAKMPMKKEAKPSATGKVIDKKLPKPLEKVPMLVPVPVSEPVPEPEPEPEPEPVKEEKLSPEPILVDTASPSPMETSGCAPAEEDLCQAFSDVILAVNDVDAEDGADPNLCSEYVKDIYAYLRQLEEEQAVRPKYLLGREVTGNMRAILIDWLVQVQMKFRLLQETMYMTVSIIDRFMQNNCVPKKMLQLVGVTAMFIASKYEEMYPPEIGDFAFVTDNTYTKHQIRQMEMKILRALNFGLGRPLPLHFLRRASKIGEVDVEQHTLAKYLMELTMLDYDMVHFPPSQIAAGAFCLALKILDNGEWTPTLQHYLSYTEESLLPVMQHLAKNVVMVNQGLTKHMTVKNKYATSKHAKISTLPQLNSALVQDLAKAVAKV

`CC(C)NC(=O)O[C@@H]1CC[C@H](c2cc(Nc3ccc4c(=O)[nH]n(C)c4c3)n[nH]2)C1` [Example 1, (1R,3S)-3-(3-((1-methyl-3-oxo-2,3-dihydro-1H-indazol-6-yl)amino)-1H-pyrazol-5-yl)cyclopentyl isopropylcarbamate]: the IC50 against CDK1/cyclinB [1] is 50 to 500 nM; in the assay on TOV21G (Homo sapiens, 168 h), at least 1000 nM; with OVCAR3 (Homo sapiens, OVCAR-3, 168 h), at least 1000 nM; at CDK2/CycA2 [2], under 50 nM; against GSK3β [3], 50 to 500 nM; on CDK2/CycE1 [4] it was under 50 nM.
For the molecule `CC(C)NC(=O)O[C@@H]1CC[C@H](c2cc(Nc3ccc4c(c3)CCNS4(=O)=O)n[nH]2)C1` [Example 2, (1R,3S)-3-(3-((1,1-dioxido-3,4-dihydro-2H-benzo[e][1,2]thiazin-6-yl)amino)-1H-pyrazol-5-yl)cyclopentyl isopropylcarbamate], the IC50 at CDK1/cyclinB [1] was under 50 nM; in the assay with TOV21G (Homo sapiens, 168 h), at least 1000 nM; in the assay on OVCAR3 (Homo sapiens, OVCAR-3, 168 h), at most 500 nM; on CDK2/CycA2 [2] it was under 50 nM; against GSK3β [3] it was 500 to 1000 nM; on CDK2/CycE1 [4], under 50 nM.
Turning to `CC(C)NC(=O)O[C@@H]1CC[C@H](c2cc(Nc3ccc4c(c3)CNS4(=O)=O)n[nH]2)C1` [Example 3, (1R,3S)-3-(3-((1,1-dioxido-2,3-dihydrobenzo[d]isothiazol-5-yl)amino)-1H-pyrazol-5-yl)cyclopentyl isopropylcarbamate], the IC50 against CDK1/cyclinB [1] is under 50 nM; in the assay with TOV21G (Homo sapiens, 168 h), at least 1000 nM; with OVCAR3 (Homo sapiens, OVCAR-3, 168 h) it was at most 500 nM; at CDK2/CycA2 [2], under 50 nM; on GSK3β [3], 500 to 1000 nM; at CDK2/CycE1 [4], under 50 nM.
For the molecule “(1s,4s)-4-{5-[(1,1-dioxo-2,3-dihydro-1λ^6-benzothiophen-5-yl)amino]-2H-pyrazol-3-yl}cyclohexyl (prop-2-ylamino)methanoate [Example 16]”, the IC50 is at least 1000 nM in the assay on TOV21G; 50 to 500 nM against CDK1/cyclinB [5]; at most 500 nM in the assay on OVCAR3; under 50 nM on CDK2/CycE1 [6]; 500 to 1000 nM against GSK3β [7]; under 50 nM at CDK2/CycA2 [8].
